{
  "source": "patent US20210163976A1",
  "about": "“GENETICALLY ALTERED PLANTS EXPRESSING HETEROLOGOUS RECEPTORS THAT RECOGNIZE LIPO-CHITOOLIGOSACCHARIDES” (Aarhus Universitet, priority 2018, published 2021)",
  "key": {"[1]": {"target": "T1, NFP L147D L154D ectodomain (Medicago truncatula, UniProt Q0GXS4, L147D/L154D)", "T1 construct": "The Medicago truncatula NFP ectodomain (residues 28-246) was codon-optimized; AcMNPV gp67 signal peptide (replaces native signal peptide 1-27) (N); made in house; host or cells: Sf9 (Spodoptera frugiperda), baculovirus, secreted into medium", "T1 sequence (Q0GXS4 28-246 L147D/L154D)": "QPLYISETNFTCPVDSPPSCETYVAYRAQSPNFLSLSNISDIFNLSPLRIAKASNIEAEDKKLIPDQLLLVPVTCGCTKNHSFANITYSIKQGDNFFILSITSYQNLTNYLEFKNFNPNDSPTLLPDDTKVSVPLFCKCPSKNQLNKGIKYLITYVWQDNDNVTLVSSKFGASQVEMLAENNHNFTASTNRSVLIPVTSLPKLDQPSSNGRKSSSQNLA", "assay": "BLI binding of hydrophobic patch mutant NFP-ECD to S. meliloti LCO-IV", "description": "(§1) Creation of NFP point mutations: The NFP leucine residues L147 and L154 were replaced with aspartate residues. Aspartate is similar in size to leucine, but negatively charged where leucine is hydrophobic. Point mutants of NFP were engineered using site-directed mutagenesis. In particular, a double-mutated NFP was engineered where the leucine residues L147 and L154 were replaced with aspartate residues to create the mutant NFP L147D L154D. Point mutated versions of NFP were expressed and purified as described in Example 1.\n(§2) NFP mutant binding assays: The binding assay using NFP wild type (WT) protein was replicated seven times, while the binding assay using the NFP mutant NFP L147D L154D was replicated four times.\nBiolayer interferometry (BLI): Binding of NFP WT and NFP L147D/L154D mutant to S. meliloti LCO-IV was measured on an Octet RED 96 system (Pall ForteBio). S. meliloti LCO consists of a tetrameric/pentameric N-acetylglucosamine backbone that is O-sulfated on the reducing terminal residue, 0-acetylated on the non-reducing terminal residue, and mono-N-acylated by unsaturated C16 acyl groups. Biotinylated ligand conjugates were immobilized on streptavidin biosensors (kinetic quality, Pall ForteBio) at a concentration of 125-250 nM for 5 minutes. The binding assays were replicated 7 times for the NFP WT, and 4 times for the NFP L147D/L154D mutant. Data analysis was performed in GraphPad Prism 6 software (GraphPad Software, Inc.). Equilibrium dissociation constants derived from the steady-state were determined by applying a non-linear regression (one site, specific binding) to the response at equilibrium plotted against the protein concentration. Kinetic parameters were determined by non-linear regression (association followed by dissociation) on the subtracted data. Binding ofA. thaliana CERK1 (AtCERK1) to chitopentaose (C05) and chitooctaose (C08) was measured in the same way."}, "[2]": {"target": "T2, Medicago truncatula NFP ectodomain (NFP-ECD) variant L147D/L154D (parent SEQ ID NO: 1) (Medicago truncatula, UniProt Q0GXS4, L147D/L154D)", "T2 construct": "The Medicago truncatula NFP ectodomain (residues 28-246); AcMNPV gp67 signal peptide (replaces native signal peptide 1-27) (N); hexa-histidine tag (C); made in house; host or cells: Sf9 cells (Spodoptera frugiperda), baculovirus", "T2 sequence (Q0GXS4 28-246 L147D/L154D)": "as above", "assay": "Biolayer interferometry (BLI) binding of hydrophobic patch mutant NFP L147D/L154D to S. meliloti LCO-IV", "experimental": "(§3) Expression and purification of Medicago NFP ectodomain: The Medicago truncatula NFP ectodomain (residues 28-246) was codon-optimized for insect cell expression (Genscript, Piscataway, USA) and cloned into the pOET4 baculovirus transfer vector (Oxford Expression Technologies). The native NFP signal peptide (residues 1-27, predicted by SignalP 4.1) was replaced with the AcMNPV gp67 signal peptide to facilitate secretion and a hexa-histidine tag was added to the C-terminus. Point mutants of NFP were engineered using site-directed mutagenesis. Recombinant baculoviruses were produced in Sf9 cells (Spodoptera frugiperda) using the FlashBac Gold kit (Oxford Expression technologies) according to the manufacturer's instructions with Lipofectin (ThermoFisher Scientific) as a transfection reagent. Protein expression was performed as follows. Suspension-cultured Sf9 cells were maintained with shaking at 299 K in serum-free MAX-XP (BD-Biosciences, discontinued) or HyClone SFX (GE Healthcare) medium supplemented with 1% Pen-Strep (10000 U/ml, Life technologies) and 1% CD lipid concentrate (Gibco). Protein expression was induced by adding recombinant passage 3 virus once the Sf9 cells reached a cell density of 1.0*10^7^6 cells/ml. After 5-7 days of expression, medium supernatant containing NFP ectodomains was harvested by centrifugation. This was followed by an overnight dialysis step against 50 mM Tris-HCl pH 8, 200 mM NaCl at 277 K. The NFP ectodomain was enriched by two subsequent steps of Ni-IMAC purification (HisTrap excel/HisTrap HP, both GE Healthcare). For crystallography experiments, N-glycans were removed using the endoglycosidase PNGase F (1:15 (w/w), room temperature, overnight). As a final purification step, NFP ectodomain was purified by SEC on a Superdex 200 10/300 or HiLoad Superdex 200 16/600 (both GE Healthcare) in phosphate buffered saline at pH 7.2 supplemented to a total of 500 mM NaCl (for binding assays) or 50 mM Tris-HCl, 200 mM NaCl (for crystallography). NFP ectodomain elutes as a single, homogeneous peak corresponding to a monomer. Point mutated versions of NFP were expressed and purified following the same protocol.\nas §1, §2\nBiolayer interferometry (BLI): Binding of NFP WT and NFP L147D/L154D mutant to S. meliloti LCO-IV was measured on an Octet RED 96 system (Pall ForteBio). […] Equilibrium dissociation constants derived from the steady-state were determined by applying a non-linear regression (one site, specific binding) to the response at equilibrium plotted against the protein concentration. Kinetic parameters were determined by non-linear regression (association followed by dissociation) on the subtracted data. […]"}, "[3]": {"target": "T3, Medicago truncatula NFP ectodomain (NFP-ECD, residues 28-246), wild type, SEQ ID NO: 1 (Medicago truncatula, UniProt Q0GXS4)", "T3 construct": "The Medicago truncatula NFP ectodomain (residues 28-246); AcMNPV gp67 signal peptide (replaces native signal peptide 1-27) (N); hexa-histidine tag (C); made in house; host or cells: Sf9 cells (Spodoptera frugiperda), baculovirus", "assay": "Microscale thermophoresis (MST) binding of NFP to carbohydrate ligands", "experimental": "as §3, with “Point mutated versions of NFP were expressed and purified following the same protocol.” left out"}, "Medicago NFP ectodomain": {"target": "T4, Medicago NFP ectodomain (Medicago truncatula, UniProt Q0GXS4)", "T4 construct": "The Medicago truncatula NFP ectodomain (residues 28-246) was codon-optimized; AcMNPV gp67 signal peptide (replaces native signal peptide 1-27) (N); made in house; host or cells: Sf9 (Spodoptera frugiperda), baculovirus, secreted into medium", "T4 sequence (Q0GXS4 28-246)": "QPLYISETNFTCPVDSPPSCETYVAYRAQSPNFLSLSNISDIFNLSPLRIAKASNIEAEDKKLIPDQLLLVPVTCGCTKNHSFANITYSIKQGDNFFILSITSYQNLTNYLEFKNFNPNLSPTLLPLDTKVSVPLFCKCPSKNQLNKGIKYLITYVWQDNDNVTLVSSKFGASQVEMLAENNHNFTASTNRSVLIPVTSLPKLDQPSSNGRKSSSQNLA", "assay": "Microscale thermophoresis (MST) binding of ligands to labelled NFP", "settings": "carbohydrate ligands", "experimental": "Expression and purification of Medicago NFP ectodomain: The Medicago truncatula NFP ectodomain (residues 28-246) was codon-optimized for insect cell expression (Genscript, Piscataway, USA) and cloned into the pOET4 baculovirus transfer vector (Oxford Expression Technologies). The native NFP signal peptide (residues 1-27, predicted by SignalP 4.1) was replaced with the AcMNPV gp67 signal peptide to facilitate secretion and a hexa-histidine tag was added to the C-terminus. Point mutants of NFP were engineered using site-directed mutagenesis. Recombinant baculoviruses were produced in Sf9 cells (Spodoptera frugiperda) using the FlashBac Gold kit (Oxford Expression technologies) according to the manufacturer's instructions with Lipofectin (ThermoFisher Scientific) as a transfection reagent. Protein expression was performed as follows. Suspension-cultured Sf9 cells were maintained with shaking at 299 K in serum-free MAX-XP (BD-Biosciences, discontinued) or HyClone SFX (GE Healthcare) medium supplemented with 1% Pen-Strep (10000 U/ml, Life technologies) and 1% CD lipid concentrate (Gibco). Protein expression was induced by adding recombinant passage 3 virus once the Sf9 cells reached a cell density of 1.0*10^7^6 cells/ml. After 5-7 days of expression, medium supernatant containing NFP ectodomains was harvested by centrifugation. […]"}},
  "data": [
    {"compound": "CCCCCC/C=C\\CCCCC/C=C/C(=O)N[C@H]1[C@H](O[C@H]2[C@H](O)[C@@H](NC(C)=O)[C@H](O[C@H]3[C@H](O)[C@@H](NC(C)=O)[C@H](O[C@H]4[C@H](O)[C@@H](NC(C)=O)C(O)O[C@@H]4COS(=O)(=O)O)O[C@@H]3CO)O[C@@H]2CO)O[C@H](COC(C)=O)[C@@H](O)[C@@H]1O", "note": "(stereo partly drawn) [S. meliloti LCO-IV]", "values": [
      {"measurement": "affinity compared to NFP WT", "setting": "[1]; FIG. 4B", "value": "approximately two times lower affinity"},
      {"measurement": "association (Kon) compared to NFP WT", "setting": "[1]; FIG. 4B", "value": "almost unaffected"},
      {"measurement": "association rate (kon) faster than WT NFP-ECD", "setting": "[1]; FIGS. 16A-16C", "value": 4.5, "unit": "fold"},
      {"measurement": "dissociation rate (koff) increase compared to WT NFP-ECD", "setting": "[1]; FIGS. 16A-16C", "value": 59, "unit": "fold"},
      {"measurement": "lower affinity compared to WT NFP-ECD", "setting": "[1]; FIGS. 16A-16C", "value": 13, "unit": "fold"},
      {"measurement": "Affinity change versus NFP WT (in words)", "setting": "[2]; FIG. 4B", "value": "approximately two times lower affinity"},
      {"measurement": "Association (Kon) change versus NFP WT (in words)", "setting": "[2]; FIG. 4B", "value": "almost unaffected"},
      {"measurement": "Dissociation (Koff), times faster than NFP WT", "setting": "[2]; FIG. 4B", "value": "approximately 15 times"},
      {"measurement": "Association rate (kon), fold faster than WT NFP-ECD", "setting": "[2]; FIGS. 16A-16C", "value": 4.5, "unit": "fold"},
      {"measurement": "Dissociation rate (koff), fold increase compared to WT NFP-ECD", "setting": "[2]; FIGS. 16A-16C", "value": 59, "unit": "fold"}
    ]},
    {"compound": "OC[C@H]1O[C@H](O[C@H]2[C@H](O)[C@@H](O)[C@@H](O[C@H]3[C@H](O)[C@@H](O)[C@@H](O[C@H]4[C@H](O)[C@@H](O)[C@@H](O[C@H]5[C@H](O)[C@@H](O)[C@@H](O[C@H]6[C@H](O)[C@@H](O)C(O)O[C@@H]6CO)O[C@@H]5CO)O[C@@H]4CO)O[C@@H]3CO)O[C@@H]2CO)[C@H](O)[C@@H](O)[C@@H]1O", "note": "(stereo partly drawn) [maltohexaose]", "values": [
      {"measurement": "Binding to NFP (in words)", "setting": "[3]", "value": "not able to bind"}
    ]},
    {"compound": "maltohexaose", "values": [
      {"measurement": "binding to NFP (MST)", "setting": "Medicago NFP ectodomain", "value": "not able to bind"}
    ]}
  ]
}
